According to a melting point compilation (Tetko et al.):

Row | SMILES | melting point [°C]
1 | COc1c(C(=O)Cl)csc1Br | 79 to 82
2 | CCCCCCCCCCCCCCCCC=O | 36
3 | C1CCCCCC1 | -8
4 | O=Cc1ccc(OCc2ccccc2)c(OCc2ccccc2)c1 | 88 to 92
5 | Cc1nc(C(F)(F)F)ccc1C(=O)O | 137 to 142
6 | CCOC(=O)CNc1nc(N)n[nH]1 | 177 to 179
7 | CC12CCC(C(O)=CC1=O)C2(C)C (configuration not stated) | 221
8 | O=[N+]([O-])c1cnc2ccccc2c1O | > 345
9 | CCC(O)C1CCCCN1 (configuration not stated) | 121
10 | COC(=O)c1ccc(I)c(C)c1 | 61
11 | O=C(Nc1ccccc1)Nc1nnc(C(F)(F)F)s1 | 149 to 151
12 | Nc1ccc(S(=O)(=O)c2ccc(NC(=O)CCC(=O)O)cc2)cc1 | 157
13 | CC(C)c1ccc(C=C[N+](=O)[O-])cc1 | 35 to 38
14 | CC12CCCCC1(C)C1CCC3(C)C(O)CCC3(C)C1CC2 (configuration not stated) | 167
15 | O=C(Cl)Cc1ccc2ccccc2c1 | 60 to 61
16 | Brc1nncs1 | 70 to 73
17 | OCC(Br)=C(Br)CO | 111 to 116
18 | Cc1cc([N+](=O)[O-])ccc1N=C=S | 82 to 84
19 | Cn1ccc2c1CC(C)(C)CC2=O | 109
20 | ClC1CCCCC1 | -44
21 | O=[N+]([O-])c1cc2c3ccccc3ccc2c2ccccc12 | 210 to 213
22 | CC(=O)NNC(C)=O | 140

Row | SMILES | melting point [°C]
23 | CN(C)c1ccccc1[N+](=O)[O-] | -20
24 | CC(=O)OC(C)OC(C)=O | 18.9
25 | CCCCCCCCc1ccc(NC(=O)c2ccc(CC)cc2)cc1 | 109
26 | Cc1ccc2[nH]c3ccccc3c2c1 | 208
27 | Cc1ccc2oc(C(=O)O)cc(=O)c2c1 | 267 to 270
28 | Cc1sc2ncnc(Cl)c2c1C | 112 to 113
29 | O=C(OCC(O)CO)c1ccccc1Nc1ccnc2cc(Cl)ccc12 (configuration not stated) | 170
30 | CCOCOc1ccc(C(=O)Nc2cccc(Cl)c2Cl)cc1 | 92.5
31 | c1cc2c(cc1N1N=N1)OCO2 | 129
32 | COC(=O)c1ccc(Cl)cc1[N+](=O)[O-] | 44
33 | CCCC(C)(N)P(=O)(O)O (configuration not stated) | 258 to 262
34 | O=C(O)CCc1ccccc1O | 87
35 | CC1=Cc2ccccc2C1O (configuration not stated) | 87
36 | N/N=C(/C(=O)c1ccc2c3c(cccc13)CC2)c1ccccc1 | 200
37 | CC(=O)OCC1OC(C(N)=O)C(OC(C)=O)C(OC(C)=O)C1OC(C)=O (configuration not stated) | 127 to 130
38 | O=C(Nc1cccnc1Cl)c1ccc(F)cc1 | 140 to 142
39 | CCCCC1C(=O)NN(c2ccccc2)C1=O (configuration not stated) | 102
40 | CC(C)CC(N)P(=O)(O)O (configuration not stated) | 274 to 280
41 | CC(C)OC(=O)C1(S(=O)(=O)c2ccc(Cl)cc2)CC1 | 89.8
42 | O=C1c2ccccc2C(=O)N1SC(Cl)(Cl)Cl | 178
43 | O=C1CCc2ccccc2N1 | 164
44 | CC(O)CC(=O)O (configuration not stated) | 49

Row | SMILES | melting point [°C]
45 | Cc1ccc(N=Nc2ccc(N(C)C)cc2)cc1 | 165 to 167
46 | ON=Cc1cc(Br)c(O)c(Br)c1 | 198 to 201
47 | Cc1ccccc1NC(=S)c1cc(C(C)(C)C)c(O)c(C(C)(C)C)c1 | 257 to 258
48 | CCCCOC(=O)CCCC | -92.8
49 | COc1ccc2c(=O)cc(-c3ccccc3)oc2c1 | 110
50 | O=S1(=O)OCCO1 | 99
51 | Cc1ncoc1C(=O)O | 239 to 240
52 | CC(C)c1cc(Cl)nc(N)n1 | 100
53 | O=CC[C@@H](O)[C@H](O)CO | 91
54 | COc1c(Br)cc(C)c2c1CCC2 | 30
55 | CCOC(=O)c1sc(SC)c(S(C)(=O)=O)c1N | 111 to 113
56 | CC(=O)c1ccccc1[N+](=O)[O-] | 28.5
57 | O=C(Cl)c1sc(Br)c2c1OCCO2 | 154 to 155
58 | CC(=O)NC(Cc1c[nH]c2ccccc12)C(N)=O (configuration not stated) | 195
59 | Cc1nc(-c2ccccc2)cs1 | 54
60 | CN(c1ccc2cc3ccc4c(c3nc2c1)COCN4)S(C)(=O)=O | 300
61 | O=C(O)COc1c(F)c(F)c(F)c(F)c1F | 109
62 | CCC1(O)CC2CN(CCc3c([nH]c4ccccc34)C(C(=O)OC)(c3cc4c(cc3OC)N(C)C3C(O)(C(=O)OC)C(OC(C)=O)C5(CC)C=CCN6CCC43C65)C2)C1 (configuration not stated) | 267
63 | N#CC(C(=O)OCc1ccccc1)c1cc(C(F)(F)F)ccc1[N+](=O)[O-] (configuration not stated) | 71
64 | O=C(NC(CSSCC(NC(=O)OCc1ccccc1)C(=O)O)C(=O)O)OCc1ccccc1 (configuration not stated) | 84
65 | Cc1nc2cc(C)c(C)cc2o1 | 93.5 to 94
66 | Cc1nc(-c2cccc(C(=O)O)c2)cs1 | 200 to 201

Row | SMILES | melting point [°C]
67 | O=C(Cl)c1cnccn1 | 150
68 | CCC(OC(N)=O)C1CCCCC1 (configuration not stated) | 128
69 | O=C(O)c1n[nH]c2ccc(Br)cc12 | 290 to 292
70 | OCC(O)COc1ccccc1 (configuration not stated) | 62.8
71 | O=Cc1ccc(-c2cc(C(F)(F)F)cc(C(F)(F)F)c2)o1 | 109 to 110
72 | Nc1nsc(SCc2ccccc2)n1 | 120 to 121
73 | CC(=O)NC1=NC(=O)C(=Cc2coc3ccc(Cl)cc3c2=O)N1C | 276
74 | O=C(Cl)c1cccc(Cl)c1Cl | 30
75 | N#Cc1ccc(N2CCCC2)cn1 | 106 to 108
76 | Cn1c(S)nnc1Cc1nc(-c2cnccn2)no1 | 203 to 204
77 | Nc1ccc(S(=O)c2ccc(N)cc2)cc1 | 175
78 | O=c1c(O)c(-c2ccc(O)c(O)c2)oc2cc(OC3OC(CO)C(O)C(O)C3O)cc(O)c12 (configuration not stated) | 248
79 | CCC(=O)OC(C)c1ccccc1 (configuration not stated) | -60
80 | O=[N+]([O-])c1ccc(Oc2ccccc2)c([N+](=O)[O-])c1 | 71
81 | CN(C)c1ccc(NC(N)=S)cc1 | 190
82 | Nc1ccc(-c2ccc(N)c(Cl)c2)cc1Cl | 132
83 | CCOC(=O)CN(C(=O)CCl)c1c(CC)cccc1CC | 50
84 | CCC(=C(c1ccccc1)c1ccc(OCCN(C)C)cc1)c1ccccc1 | 96
85 | O=C(Cl)c1cncc(Br)c1 | 84 to 86
86 | O=C1OC(=O)C2Cc3ccccc3CC12 (configuration not stated) | 188
87 | COC(=O)C(CCSC)NC(=O)c1ccc(C(F)(F)F)cc1 (configuration not stated) | 94 to 96
88 | CCOC1OC(=O)c2c(OC)cccc21 (configuration not stated) | 67

Row | SMILES | melting point [°C]
89 | C/C(CCc1oc2c(Br)cc(Br)cc2c1-c1ccc(C)o1)=N/O | 157 to 158
90 | O=C(Nc1ccccc1)OC1CCCCCC1OC(=O)Nc1ccccc1 (configuration not stated) | 217 to 219
91 | Nn1c(Cc2ccccc2)nc2ccccc2c1=O | 111
92 | COC(=O)c1ccc(C)c(OC)c1 | 49
93 | CCCCCC(=O)OCC(COC(=O)CCCCC)OC(=O)CCCCC | -60
94 | O=C(O)CF | 35.2
95 | CC(C)[C@H](NC(=O)OCc1ccccc1)C(=O)O | 60
96 | CC(=O)Oc1cccc(N=Nc2cccc(OC(C)=O)c2)c1 | 144
97 | C=CCC1(O)CCC2C3CCC4=CC(=O)CCC4=C3C=CC21C (configuration not stated) | 120
98 | Nc1ccc([N+](=O)[O-])cc1C(=O)O | 278
99 | COc1ccccc1-c1nc(CCl)no1 | 66 to 67
100 | O=C(O)Cc1cc(O)c(CC(=O)O)cc1O | 234 to 236
101 | c1ccc(-c2sc(-c3ccccc3)c(-c3ccccc3)c2-c2ccccc2)cc1 | 182
102 | CC(C)[C@@H](N)CO | 32 to 36
103 | BrCc1cccc2nonc12 | 77 to 79
104 | CN(C)c1ccc(O)cc1 | 77
105 | N#Cc1cccc(N2CCCC2)n1 | 73 to 74
106 | O=C1CCCCCN1Cc1ccccc1 | 56 to 57
107 | O=C(O)/C=C/c1ccc(F)cc1F | 214 to 218
108 | CSC(=NS(=O)(=O)c1ccccc1)SC | 105 to 107
109 | O=CC=P(c1ccccc1)(c1ccccc1)c1ccccc1 | 186
110 | N#CCNCC#N | 77

Row | SMILES | melting point [°C]
111 | O=C1c2ccccc2C(=O)N1c1nc2ccccc2[nH]1 | 272 to 275
112 | CC(=O)NCc1c(I)c(NC(C)=O)c(I)c(C(=O)O)c1I | 255
113 | CC(=O)Nc1ccc(/N=N/c2ccc(N(Nc3ccc(NC(C)=O)cc3)C(C)=O)cc2)cc1 | 218
114 | COC(=O)CC(=O)c1cccnc1 | 34 to 42
115 | CCCCCCCCCCCCOc1ccc(C=O)cc1 | 28
116 | O=C(Nc1ccc([N+](=O)[O-])cc1[N+](=O)[O-])C(C(F)(F)F)(C(F)(F)F)C(F)(F)F | 164
117 | CC(C)(C)OC(=O)N1CSC[C@H]1C(=O)O | 132 to 136
118 | CCC(=O)Nc1nc(C)c(Cl)s1 | 159
119 | O=C(O)c1ccccc1-c1cccnc1 | 188
120 | O=C(N[C@H]1CC=CC[C@H]1C(=O)O)OCc1ccccc1 (relative stereo) | 118 to 124
121 | Cc1cc(C)cc(C2Oc3c(Cl)c(Cl)c(Cl)c(Cl)c3O2)c1 | 160
122 | CSC(=O)c1c(C(F)F)nc(C(F)(F)F)c(C(=O)SC)c1CC(C)C | 65
123 | N#Cc1cc(Br)cc(Br)c1N | 152 to 156
124 | CCOC(=O)c1c(-c2ccc(C)c(C)c2)csc1N | 82
125 | CC(C)(C)c1ccc(C(C)(C)C)cc1 | 79.5
126 | Cc1ccc(C)[nH]1 | 7.7
127 | CC(O)C(C)C(N)C(=O)O (configuration not stated) | 200
128 | O=C1CNC(=O)CN1 | 300
129 | CCCCCCCCCCCCCCCCCCCCC1CCCCC1 | 48.5
130 | CNC(=O)Oc1cc(C)c(SC)c(C)c1 | 120
131 | N#CCc1cc(C(F)(F)F)ccc1Cl | 32
132 | COc1ccc(Oc2ncccc2[N+](=O)[O-])cc1 | 95 to 101
